ChEMBL document CHEMBL1143518, “Binding of isotryptamines and indenes at h5-HT6 serotonin receptors” (Bioorg Med Chem Lett, 2005)
pKi: −log10 of the molar value.

These compounds were tested against 5-hydroxytryptamine receptor 6 (Homo sapiens, UniProt P50406) (assay: Binding affinity against human 5-Hydroxytryptamine 6 receptor expressed in HEK293 cells using [3H]LSD done for 90 minutes at pH 7.4 at room temperature).
Format: cell-based

5-hydroxytryptamine receptor 6, sequence (P50406 whole entry): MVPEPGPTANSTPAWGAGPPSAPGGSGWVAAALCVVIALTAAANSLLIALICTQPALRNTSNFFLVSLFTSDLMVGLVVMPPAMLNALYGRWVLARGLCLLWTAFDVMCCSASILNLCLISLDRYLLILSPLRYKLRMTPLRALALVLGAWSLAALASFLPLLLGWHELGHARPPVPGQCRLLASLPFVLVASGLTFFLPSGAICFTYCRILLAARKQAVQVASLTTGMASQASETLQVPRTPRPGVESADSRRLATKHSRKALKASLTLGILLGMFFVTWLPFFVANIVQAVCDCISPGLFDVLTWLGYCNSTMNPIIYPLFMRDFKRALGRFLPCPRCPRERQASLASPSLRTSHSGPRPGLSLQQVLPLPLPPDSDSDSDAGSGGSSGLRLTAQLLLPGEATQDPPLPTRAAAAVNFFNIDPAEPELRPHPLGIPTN

`Nc1ccc(SC2CCc3ccccc32)cc1` (configuration not stated) and `Nc1ccc(CC2CCc3ccccc32)cc1` (configuration not stated) are within 0.2 log units of each other in pKi: 5.38 for the first, 5.21 for the second.

Compared with `Nc1ccc(S(=O)(=O)C2CCc3ccccc32)cc1` (configuration not stated), `Nc1ccc(CC2C=Cc3ccccc32)cc1` (configuration not stated) is 0.78 log units lower in pKi: 6.13 for the first, 5.35 for the second. The first binds more tightly here.

Going from `Nc1ccc(/C=C2\C=Cc3ccccc32)cc1` to `Nc1ccc(CC2=CCc3ccccc32)cc1`, the pKi falls from 6.19 to 4.93 (1.26 log units). The first binds more tightly here.

First: CN(C)CCn1cc(Cc2ccc(N)cc2)c2ccccc21
Second: CN(C)CCc1cn(CCc2ccccc2)c2ccccc12
The pKi of the first is 0.62 log units lower: 7.30 for the first, 7.92 for the second.

Compared with `CNCCC1=CC(Cc2ccccc2)c2ccccc21` (configuration not stated), `CNCCC1=CC(CCc2ccccc2)c2ccccc21` (configuration not stated) is 1.52 log units lower in pKi: 8.52 for the first, 7.00 for the second. The first binds more tightly here.

First: Nc1ccc(Cc2c[nH]c3ccccc23)cc1
Second: CN(C)CCC1=C/C(=C\c2ccccc2)c2ccccc21
The pKi of the first is 1.64 log units lower: 5.60 for the first, 7.24 for the second. The second binds more tightly here.
